Test results published in patent US20260048051A1, “TREATMENT OF INFLAMMATORY BOWEL DISEASE” (Atomwise Inc., priority 2024, published 2026).
pIC50: −log10 of the molar value.

Legend:
TYK2-JH2 = molecular target: T1, TYK2-JH2 (Homo sapiens, UniProt P29597); experiment: TYK2-JH2 HTRF binding assay (ligand efficiency); settings: calculated from binding-assay IC50 (Equation 1)
T1 construct: TYK JH2 enzyme mix (ChemPartner: CP20210818A-BV); purchased ChemPartner CP20210818A-BV
Procedure: The following example describes the TYK2-JH2 HTRF binding assay used to determine the ligand efficiency of the TYK2 inhibitors.
To calculate ligand efficiency, Equation 1 is applied: […]
in which IC50 comes from the binding assay used to determine compound potency.
TYK JH2 enzyme mix (ChemPartner: CP20210818A-BV), tracer (ChemPartner: CP-0029472-051) and mAb Anti-6HIS Tb cryptate Gold (Cisbio: Cat No. 61HI2TLA) mix were prepared in assay buffer (10 mM MgCl2, 20 mM HEPES pH 7.5, 0.01% Triton X-100, 1 mM DTT). Compounds diluted in DMSO (Final Concentrations 0.1 to 0.000005 [μM]) and enzyme mix (0.5 nM Final Concentration) were added to 384 well plates, briefly centrifuged and incubated at room temperature for 10 minutes. After incubation, tracer mix (Tracer-35 nM final concentration); (MAb Anti-6HIS Tb cryptate Gold-0.5× final)) was added, briefly centrifuged then incubate at room temperature 60 minutes. After incubation, plates were read by Envision TR-FRET (Ex340/Em495/520) protocol (PerkinElmer-Envision 2104 multilabel plate reader).

[1] = Mouse plasma pharmacokinetics, PO 5 mg/kg; type: in vivo
Procedure: The following example describes the methods used to evaluate the pharmacokinetics of TYK2 inhibitors in vivo following dosing of a compound of the invention.
The pharmacokinetics of test compounds were evaluated in either male CD-1 mice or male C57BL/6 mice when administered by oral gavage and IV bolus injection. The animals were allowed free access to food and water before administration. The plasma samples were analyzed by LC-MS/MS and the concentration of test compound at each time point was determined by linear regression. Pharmacokinetic parameters were calculated from the plasma concentrations by non-compartmental modeling using WinNonlin 8.2.
Oral composition. To prepare a pharmaceutical composition for oral delivery, the test articles described herein were dissolved in DMSO and then mixed with necessary volume of PEG400 followed by […] in water or 50% Kolliphor HS 15 in saline to provide the final concentrations of 0.5 mg/mL or 1 mg/mL (Table 8). The resultant mixtures were suitable for oral administration.
The PK parameters measured in mouse plasma after treatment with TYK2 inhibitor compounds via PO (oral administration) at 5 mg/kg are summarized below in Tables 9-11.

GM-CSF induced pSTAT5 = GM-CSF induced pSTAT5 assay in CellSensor irf1-bla TF-1 cells; type: cell-based; settings: GM-CSF 1 ng/mL; for pIC50: Homo sapiens, read-out: Cellular selectivity (GM-CSF induced pSTAT5)
Procedure: The CellSensor irfl-bla TF-1 cell line (LifeTechnologies, K1657) was cultured in RPMI 1640 Medium (Invitrogen 72400-047), 10% Fetal Bovine Serum (Invitrogen, 26400044), 1 mM Sodium pyruvate (Life Technologies, 11360039), 1% MEM NEAA (Life Technologies, 11140-035), 2 ng/ml of human recombinant GM-CSF (Fisher, PHC2015), 1% Penicillin/Streptomycin (Life Technologies, 15140-122) and 5 µg/ml of Blasticidin (ThermoFisher, A1113903).
The cell line was seeded in a T75 flask at 13×10^6 cells/50 mL in starvation medium (Opti-MEM™ I Reduced Serum Medium, no phenol red (Life Technologies, 11058-021), 1 mM Na pyruvate (Life Technologies, 11360039), 1% MEM NEAA (Life Technologies, 11140-035), and 1% Penicillin/Streptomycin (Life Technologies, 15140-122)) for 16 hours at 37° C. under 5% CO2 the day before the assay.
For the assay, CellSensor irfl-bla TF-1 cells were seeded at 30 000 cells/32 μL (starvation medium)/well in a 384-well plate.
Compounds were added on the cells in 4 μL (starvation medium)/well at 10× the final concentration. They were incubated for 30 minutes at 37° C.
Human recombinant carrier-free GM-CSF (ThermoFisher, ref PHC2015) was added to the wells in 4 μL (starvation medium)/well at 10×. The final concentration was 1 ng/mL. Control wells without GM-CSF treatment were added. Plates were incubated for 5 hours at 37° C.
6× LiveBlazer-FRET substrate (Invitrogen, K1085) was added to the wells at 8 μL/well. The substrate was prepared shortly before use by mixing 6 μL of solution A and 60 μL of solution B to 934 μL of solution C. Plates were incubated for 2.5 hours at room temperature in the dark. The plates were read on an Envision (Perkin Elmer) with an excitation at a wavelength of 409 nm and two wavelengths for the emission 520 nm and 450 nm. The ratio between the […] emission was used to calculate the IC50s.
The IC50 for the inhibition of pSTAT5 was calculated with the XLfit software using the 4 Parameter Logistic Model or Sigmoidal Dose-Response Model (model 205).

IL-6 induced pSTAT3 = IL-6 induced pSTAT3 assay in TF-1 cells; type: cell-based; settings: Homo sapiens, read-out: Cellular selectivity (IL-6/pSTAT3)
Procedure: The following example describes the IL-6 induced pSTAT3 assay used to determine the cellular selectivity (IL-6/pSTAT3) of the TYK2 inhibitors.
TF-1 (ATCC®, CRL-2003™) cells were cultured in RPMI 1640 Medium, with GlutaMAX™ Supplement, HEPES for Cell Culture (Life Technologies, 72400047), 10% Fetal Bovine Serum (Life Technologies, 26400044), 2 ng/mL human recombinant GM-CSF (Life Technologies, PHC2013), 1 mM Sodium pyruvate (Life Technologies, 11360039), 1% MEM NEAA (Life Technologies, 11140-035), 1% Penicillin/Streptomycin (Life Technologies, 15140-122).
TF-1 (70×10^6) cells were starved overnight in T150 flasks (Opti-MEM™ I Reduced Serum Medium, no phenol red (Life Technologies, 11058-021), 1 mM Na pyruvate (Life Technologies, 11360039), 1% MEM NEAA (Life Technologies, 11140-035), and 1% Penicillin/Streptomycin (Life Technologies, 15140-122)) then seeded into 96-well TPP plates (150 000 cell/well) and incubated with test compounds (Final Concentration [nM]10000-0.05) for 30 minutes at 37° C. […] Stimulation was terminated by addition of lysis buffer (MSD K150SVD) and pSTAT3 detection was measured with Phospho-STAT3 (Tyr705) Kit MSD K150SVD)) according to manufacturer's instruction. Briefly, cell lysates were added to pre-blocked plates, sealed, and shake for 1 hour at room temperature. Plates were then washed and incubated with detection antibody for 1 hour at room temperature. After washing, Read Buffer was added, and plates were read on MSD instrument (Model 1300 MSD Quickplex SQ120).

T1 sequence (P29597 589-875 limits assumed): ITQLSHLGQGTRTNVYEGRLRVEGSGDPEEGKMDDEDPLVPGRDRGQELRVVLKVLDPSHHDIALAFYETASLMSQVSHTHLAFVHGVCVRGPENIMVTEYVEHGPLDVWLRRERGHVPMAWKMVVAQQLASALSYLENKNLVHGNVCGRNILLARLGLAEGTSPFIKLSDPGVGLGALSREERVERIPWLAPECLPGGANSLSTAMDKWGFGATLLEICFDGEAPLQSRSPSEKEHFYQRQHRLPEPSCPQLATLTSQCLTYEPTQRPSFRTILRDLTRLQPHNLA

Row | SMILES | Ligand Efficiency (TYK2-JH2) | pIC50 (IL-6 induced pSTAT3) | other results
1 | CC(c1ccc(Nc2cc(Nc3ncccc3S(C)(=O)=O)ncn2)nc1C(F)(F)F)N1CC2(COC2)C1 (stereo in doubt) [Compound 11, (R)—N^4-(5-(1-(2-oxa-6-azaspiro[3.3]heptan-6-yl)ethyl)-6-(trifluoromethyl)pyridin-2-yl)-N^6-(3-(methylsulfonyl)pyridin-2-yl)pyrimidine-4,6-diamine] | †† (††: 0.37-0.39) | > 5.40 | Half-life (t1/2) [1]: ††† (†††: >1.5); Maximum plasma concentration (Cmax) [1]: †† (††: 800-1500); Total systemic exposure (AUCinf) [1]: ††† (†††: >2000); pIC50 (GM-CSF induced pSTAT5): < 5.00
2 | Cc1nc(Nc2cc(Nc3ncccc3S(C)(=O)=O)ncn2)ccc1[C@H](C)N1CC2(COC2)C1 (stereo in doubt) [Compound 12, N^4-(5-(1-(2-oxa-6-azaspiro[3.3]heptan-6-yl)ethyl)-6-methylpyridin-2-yl)-N^6-(3-(methylsulfonyl)pyridin-2-yl)pyrimidine-4,6-diamine] | ††† (†††: >0.39) | > 5.40 | Half-life (t1/2) [1]: † (†: <1.0); Maximum plasma concentration (Cmax) [1]: ††† (†††: >1500); Total systemic exposure (AUCinf) [1]: †† (††: 1000-2000); pIC50 (GM-CSF induced pSTAT5): > 5.40
3 | C[C@H](c1ccc(Nc2cc(Nc3ncccc3S(C)(=O)=O)ncn2)nc1)N1CC2(COC2)C1 [Compound 17, (R)—N^4-(5-(1-(2-oxa-6-azaspiro[3.3]heptan-6-yl)ethyl)pyridin-2-yl)-N^6-(3-(methylsulfonyl)pyridin-2-yl)pyrimidine-4,6-diamine] | †† (††: 0.37-0.39) | < 5.00 | Cellular selectivity (GM-CSF induced pSTAT5) (GM-CSF induced pSTAT5): ††††
4 | CS(=O)(=O)c1cccnc1Nc1cc(Nc2ccc3c(n2)CCCC3N2CC3(COC3)C2)ncn1 (stereo in doubt) [Compound 5, (R)—N^4-(5-(2-oxa-6-azaspiro[3.3]heptan-6-yl)-5,6,7,8-tetrahydroquinolin-2-yl)-N^6-(3-(methylsulfonyl)pyridin-2-yl)pyrimidine-4,6-diamine] | †† (††: 0.37-0.39) | 5.00 to 5.40 | Half-life (t1/2) [1]: ††† (†††: >1.5); Maximum plasma concentration (Cmax) [1]: ††† (†††: >1500); Total systemic exposure (AUCinf) [1]: ††† (†††: >2000); pIC50 (GM-CSF induced pSTAT5): < 5.00
5 | CS(=O)(=O)c1ccccc1Nc1cc(Nc2ccc(C(=O)NC3CCOC3)cn2)ncn1 (stereo not drawn) [Compound 43, 6-(6-(2-(methylsulfonyl)phenylamino)pyrimidin-4-ylamino)-N-(tetrahydrofuran-3-yl)nicotinamide] | †† (††: 0.37-0.39) |  | 
6 | CS(=O)(=O)c1cccnc1Nc1cc(Nc2ccc(NC3CC(F)(F)C3)cn2)ncn1 [Compound 37, N^4-(5-(3,3-difluorocyclobutylamino)pyridin-2-yl)-N^6-(3-(methylsulfonyl)pyridin-2-yl)pyrimidine-4,6-diamine] | ††† (†††: >0.39) |  | 
7 | CC(c1ccc(Nc2cc(Nc3ncccc3S(C)(=O)=O)ncn2)nc1)N1CC(F)C1 (stereo not drawn) [Compound 22, N^4-(5-(1-(3-fluoroazetidin-1-yl)ethyl)pyridin-2-yl)-N^6-(3-(methylsulfonyl)pyridin-2-yl)pyrimidine-4,6-diamine] | ††† (†††: >0.39) |  | 
8 | Cc1cccc(Nc2cc(Nc3ccccc3C(N)=O)ncn2)n1 [Compound 46] | ††† (†††: >0.39) |  | 
9 | CC(c1ccc(Nc2cc(Nc3ncccc3S(C)(=O)=O)ncn2)nc1)N1CC2(CC(C(F)F)C2)C1 (stereo not drawn) [Compound 34, N^4-(5-(1-(6-(difluoromethyl)-2-azaspiro[3.3]heptan-2-yl)ethyl)pyridin-2-yl)-N^6-(3-(methylsulfonyl)pyridin-2-yl)pyrimidine-4,6-diamine] | †† (††: 0.37-0.39) |  | 
10 | CC(C)(c1ccc(Nc2cc(Nc3ncccc3S(C)(=O)=O)ncn2)nc1)N1CC2(CCOCC2)C1 [Compound 33, N^4-(5-(2-(7-oxa-2-azaspiro[3.5]nonan-2-yl)propan-2-yl)pyridin-2-yl)-N^6-(3-(methylsulfonyl)pyridin-2-yl)pyrimidine-4,6-diamine] | †† (††: 0.37-0.39) |  | 
11 | Cc1cccc(Nc2cc(Nc3ncccc3CS(C)(=O)=O)ncn2)n1 [Compound 71, N^4-(6-methylpyridin-2-yl)-N^6-(3-((methylsulfonyl)methyl)pyridin-2-yl)pyrimidine-4,6-diamine] | ††† (†††: >0.39) |  | 
12 | C[C@@H](c1ccc(Nc2cc(Nc3ncccc3S(C)(=O)=O)ncn2)nc1)N1C[C@H]2COC[C@H]2C1 [Compound 25, N^4-(3-(methylsulfonyl)pyridin-2-yl)-N^6-(5-(1-((3aR,6aS)-tetrahydro-1H-furo[3,4-c]pyrrol-5(3H)-yl)ethyl)pyridin-2-yl)pyrimidine-4,6-diamine] | ††† (†††: >0.39) |  | 
13 | CS(=O)(=O)c1ccccc1Nc1cc(Nc2ccc(CNC3CCOC3)cn2)ncn1 (stereo not drawn) [Compound 28, N^4-(2-(methylsulfonyl)phenyl)-N^6-(5-((tetrahydrofuran-3-ylamino)methyl)pyridin-2-yl)pyrimidine-4,6-diamine] | †† (††: 0.37-0.39) |  | 
